Reference: patent publication US20060069132A1, “Azolecarboxamide herbicides” (priority 2004, published 2006)

What was measured:
[1] = test system: large crabgrass; test: Test A pre-/postemergence herbicide test; format: in vivo, Digitaria sanguinalis
Summary of the method: (§1)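 Visual injury scores on a 0–100 scale (100 = complete control) taken about ten days post-treatment in greenhouse against untreated controls; dash means no result. Treatments: preemergence soil spray and postemergence spray to runoff on one- to two-leaf plants 2 to 10 cm tall, surfactant-containing formulation.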

[2] = test system: velvetleaf; test: Test A pre-/postemergence herbicide test; format: in vivo, Abutilon theophrasti
Summary of the method: as §1

[3] = test system: rice; test: Test B pre-/postemergence herbicide test; format: in vivo, Oryza sativa; settings: preemergence, 125 g ai/ha; 0 to 100 scale, 0 is no effect, 100 is complete control
Summary of the method: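 Response was scored visually 13 to 15 days after treatment against untreated greenhouse controls, 0 meaning no effect and 100 complete control. Formulations (solvent mixture plus surfactant) went onto soil after planting, onto foliage of 1- to 4-leaf plants, and onto 2-leaf plants in a flooded paddy set including rice and barnyardgrass.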

[4] = test system: Surinam grass; test: Test C pre-/postemergence herbicide test; format: in vivo, Urochloa decumbens; settings: for Plant response rating (0 = no effect, 100 = complete control), Surinam Grass: 62 g ai/ha; for Plant response rating (0 = no effect, 100 = complete control), Surinam Grass / Plant response rating, Surinam Grass: preemergence; for Plant response rating, Surinam Grass: 125 g ai/ha, scale 0 (no effect) to 100 (complete control), visual, 12 to 14 days; for Surinam Grass plant response rating: Preemergence, 500 g ai/ha, scale 0 to 100, 0 no effect, 100 complete control
Summary of the method: (§2)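 Visual ratings on a 0–100 scale (100 = complete control) made versus untreated controls after 12 to 14 greenhouse days. Test chemicals, formulated in surfactant-containing non-phytotoxic solvent, applied preemergence to planted seeds or postemergence to 1- to 4-leaf plants (2 to 18 cm).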

[5] = test system: woolly cupgrass; test: Test C pre-/postemergence herbicide test; format: in vivo, Eriochloa villosa; settings: for Plant response rating (0 = no effect, 100 = complete control), Cupgrass, Woolly: 62 g ai/ha; for Plant response rating (0 = no effect, 100 = complete control), Cupgrass, Woolly / Plant response rating, Cupgrass, Woolly: preemergence; for Plant response rating, Cupgrass, Woolly: visual, 12 to 14 days; for Cupgrass, Woolly plant response rating: Preemergence, 500 g ai/ha, scale 0 to 100, 0 no effect, 100 complete control
Summary of the method: as §2

[6] = test system: goosegrass; test: Test C pre-/postemergence herbicide test; format: in vivo, Eleusine indica; settings: for Plant response rating (0 = no effect, 100 = complete control), Goosegrass: 62 g ai/ha; for Plant response rating (0 = no effect, 100 = complete control), Goosegrass / Plant response rating, Goosegrass: preemergence; for Plant response rating, Goosegrass: 125 g ai/ha, scale 0 (no effect) to 100 (complete control), visual, 12 to 14 days; for Goosegrass plant response rating: Preemergence, 500 g ai/ha, scale 0 to 100, 0 no effect, 100 complete control
Summary of the method: as §2

[7] = test system: johnsongrass; test: Test C pre-/postemergence herbicide test; format: in vivo, Sorghum halepense; settings: for Plant response rating (0 = no effect, 100 = complete control), Johnsongrass: 62 g ai/ha; for Plant response rating (0 = no effect, 100 = complete control), Johnsongrass / Plant response rating, Johnsongrass: preemergence; for Plant response rating, Johnsongrass: 125 g ai/ha, scale 0 (no effect) to 100 (complete control), visual, 12 to 14 days; for Johnsongrass plant response rating: Preemergence, 500 g ai/ha, scale 0 to 100, 0 no effect, 100 complete control
Summary of the method: as §2

[8] = test system: eastern black nightshade; test: Test C pre-/postemergence herbicide test; format: in vivo, Solanum ptycanthum; settings: for Plant response rating (0 = no effect, 100 = complete control), Nightshade: 62 g ai/ha; for Plant response rating (0 = no effect, 100 = complete control), Nightshade / Plant response rating, Nightshade: preemergence; for Plant response rating, Nightshade: 125 g ai/ha, scale 0 (no effect) to 100 (complete control), visual, 12 to 14 days; for Nightshade plant response rating: Preemergence, 500 g ai/ha, scale 0 to 100, 0 no effect, 100 complete control
Summary of the method: as §2

[9] = test system: soybean; test: Test C pre-/postemergence herbicide test; format: in vivo, Glycine max; settings: for Plant response rating (0 = no effect, 100 = complete control), Soybean: 62 g ai/ha; for Plant response rating (0 = no effect, 100 = complete control), Soybean / Plant response rating, Soybean: preemergence; for Plant response rating, Soybean: 125 g ai/ha, scale 0 (no effect) to 100 (complete control), visual, 12 to 14 days; for Soybean plant response rating: Preemergence, 500 g ai/ha, scale 0 to 100, 0 no effect, 100 complete control
Summary of the method: as §2

[10] = test system: common (oilseed) sunflower; test: Test C pre-/postemergence herbicide test; format: in vivo, Helianthus annuus; settings: for Plant response rating (0 = no effect, 100 = complete control), Sunflower: 62 g ai/ha; for Plant response rating (0 = no effect, 100 = complete control), Sunflower / Plant response rating, Sunflower: preemergence; for Plant response rating, Sunflower: 125 g ai/ha, scale 0 (no effect) to 100 (complete control), visual, 12 to 14 days; for Sunflower plant response rating: Preemergence, 500 g ai/ha, scale 0 to 100, 0 no effect, 100 complete control
Summary of the method: as §2

[11] = Postemergence, 500 g ai/ha, 0 to 100 scale, 0 no effect, 100 complete control
[12] = Postemergence, 2000 g ai/ha, 0 to 100 scale, 0 no effect, 100 complete control
[13] = Preemergence, 500 g ai/ha, visual rating, 0 to 100 scale (0 no effect, 100 complete control)
[14] = Preemergence, 2000 g ai/ha, 0 to 100 scale, 0 no effect, 100 complete control
[15] = Preemergence, 2000 g ai/ha, visual rating, 0 to 100 scale (0 no effect, 100 complete control)
[16] = 125 g ai/ha, scale 0 (no effect) to 100 (complete control)
[17] = 250 g ai/ha, scale 0 to 100 (0 no effect, 100 complete control)

Structure (SMILES)	Plant response rating, Crabgrass, Large [1, 12]	Crabgrass, Large plant response rating [1, 13]	Crabgrass, Large plant response rating [1, 14]	Plant response rating, Velvetleaf [2, 12]	Velvetleaf plant response rating [2, 13]	Velvetleaf plant response rating [2, 15]	Plant response rating, Rice [3]	Plant response rating (0 = no effect, 100 = complete control), Surinam Grass [4]	Plant response rating, Surinam Grass [4]	Surinam Grass plant response rating [4]	Plant response rating (0 = no effect, 100 = complete control), Cupgrass, Woolly [5]	Plant response rating, Cupgrass, Woolly [5, 16]	Plant response rating, Cupgrass, Woolly [5, 17]	Cupgrass, Woolly plant response rating [5]	Plant response rating (0 = no effect, 100 = complete control), Goosegrass [6]	Plant response rating, Goosegrass [6]	Goosegrass plant response rating [6]	Plant response rating (0 = no effect, 100 = complete control), Johnsongrass [7]	Plant response rating, Johnsongrass [7]	Johnsongrass plant response rating [7]	further results
CCCN1CCc2c(NC(=O)c3cc(C(C)(C)C)nn3CC)cccc2C1=O [Compound 65]	60	95	100	25	10	30	10	0	0	50	0	0	10	10	0	30	80	10	40	100	Plant response rating, Crabgrass, Large [1, 11]: 30; Plant response rating (0 = no effect, 100 = complete control), Nightshade [8]: 50; Plant response rating, Nightshade [8]: 90; Nightshade plant response rating [8]: 100; Plant response rating (0 = no effect, 100 = complete control), Soybean [9]: 0; Plant response rating, Soybean [9]: 0; Soybean plant response rating [9]: 20; Plant response rating (0 = no effect, 100 = complete control), Sunflower [10]: 0; Plant response rating, Sunflower [10]: 0; Sunflower plant response rating [10]: 0
CCOC(=O)c1cccc(NC(=O)c2cc(C(C)(C)C)nn2CC)c1C [Compound 88]	95	45	100	55	45	70	20	10	20	95	20	30	80	90	60	90	100	0	20	70	Crabgrass, Large plant response rating [1, 11]: 85; Velvetleaf plant response rating [2, 11]: 40; Plant response rating (0 = no effect, 100 = complete control), Nightshade [8]: 40; Plant response rating, Nightshade [8]: 90; Nightshade plant response rating [8]: 95; Plant response rating (0 = no effect, 100 = complete control), Soybean [9]: 0; Plant response rating, Soybean [9]: 0; Soybean plant response rating [9]: 10; Plant response rating (0 = no effect, 100 = complete control), Sunflower [10]: 0; Plant response rating, Sunflower [10]: 0; Sunflower plant response rating [10]: 0
